These results are taken from patent US10058534B2, “Benzothiophene derivatives and compositions thereof as selective estrogen receptor degraders” (NOVARTIS AG, priority 2013, dated 2018).

The experiment concerns the target ERα (Homo sapiens (Human), UniProt P03372). The experiment can be described thus: ERα degradation (MCF7 cells), in-cell Western. Format: cell-based. Conditions: MCF7 cells; for IC50: inflection point of the degradation in response to ligand concentration; for % ERα remaining: remaining ERα protein at 10 μM ligand, relative to DMSO control. On the procedure: ERα Degradation (MCF7 Cells)
The column titled MCF7 IC50 reports the inflection point of the inhibition of transcription in MCF7 cells as described above. Percentage ERα remaining reports the remaining ERα protein measured at 10 μM concentration of the ligand as described above. The column ERα IC50 reports the inflection point of the degradation in response to the ligand concentration.

Sequence of ERα (P03372 whole entry): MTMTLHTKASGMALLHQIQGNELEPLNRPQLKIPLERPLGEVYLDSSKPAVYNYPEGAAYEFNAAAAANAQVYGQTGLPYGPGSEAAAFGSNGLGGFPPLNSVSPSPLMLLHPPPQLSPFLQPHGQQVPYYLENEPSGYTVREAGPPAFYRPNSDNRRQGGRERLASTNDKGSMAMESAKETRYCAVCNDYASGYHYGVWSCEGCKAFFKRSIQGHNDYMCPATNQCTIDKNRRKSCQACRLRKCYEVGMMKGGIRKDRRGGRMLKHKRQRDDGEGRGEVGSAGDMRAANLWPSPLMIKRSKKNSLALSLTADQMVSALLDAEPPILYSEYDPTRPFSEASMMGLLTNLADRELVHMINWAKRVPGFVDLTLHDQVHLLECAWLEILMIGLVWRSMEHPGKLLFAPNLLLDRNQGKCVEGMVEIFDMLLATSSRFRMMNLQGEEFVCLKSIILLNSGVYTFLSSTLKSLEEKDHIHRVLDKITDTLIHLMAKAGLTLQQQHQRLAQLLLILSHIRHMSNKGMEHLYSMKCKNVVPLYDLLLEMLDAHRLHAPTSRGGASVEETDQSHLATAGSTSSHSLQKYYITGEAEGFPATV

The IC50 is the concentration at which inhibition is half-maximal. Lower therefore signals inhibition by little substance. On to `O=C(O)CCc1ccc(Oc2c(-c3ccc(O)cc3)sc3cc(O)ccc23)cc1` [Example 1, 3-(4-((6-hydroxy-2-(4-hydroxyphenyl)-benzo[b]thiophen-3-yl)oxy)phenyl)propanoic acid], for which it took 31 nM to reach half-maximal inhibition (IC50) and the “% ERα remaining” value stood at 58%.
Turning to `O=C(O)/C=C/c1ccc(Oc2c(-c3ccc(C(F)(F)F)cc3)sc3cc(O)ccc23)cc1` [Example 3, (E)-3-(4-((6-hydroxy-2-(4-(trifluoromethyl)phenyl)benzo[b]thiophen-3-yl)oxy)phenyl)acrylic acid], half-maximal inhibition (IC50) was put at 34 nM and the “% ERα remaining” value came to 18%.
In the same order, the values of `CC(C)c1ccccc1-c1sc2cc(O)ccc2c1Oc1ccc(/C=C/C(=O)O)cc1` [Example 4, (E)-3-(4-((6-hydroxy-2-(2-isopropylphenyl)benzo[b]thiophen-3-yl)oxy)phenyl)acrylic acid] are 0.4 nM and 13%.
In the same order, the values of `Cc1ccccc1-c1sc2cc(O)ccc2c1Oc1ccc(/C=C/C(=O)O)cc1` [Example 5, (E)-3-(4-((6-hydroxy-2-(o-tolyl)benzo-[b]thiophen-3-yl)oxy)-phenyl)acrylic acid] are 4 nM and 20%.
Turning to `O=C(O)/C=C/c1ccc(Oc2c(-c3ccc(Cl)cc3)sc3cc(O)ccc23)cc1` [Example 6, (E)-3-(4-((2-(4-chlorophenyl)-6-hydroxybenzo[b]thiophen-3-yl)oxy)phenyl)-acrylic acid], the “% ERα remaining” value amounted to 21%.
As to `O=C(O)/C=C/c1ccc(Oc2c(-c3cccc(F)c3)sc3cc(O)ccc23)cc1` [Example 7, (E)-3-(4-((2-(3-fluorophenyl)-6-hydroxybenzo[b]thiophen-3-yl)oxy)phenyl)-acrylic acid], the “% ERα remaining” value is 22%.
Turning to `O=C(O)/C=C/c1ccc(Oc2c(-c3ccccc3C(F)(F)F)sc3cc(O)ccc23)cc1` [Example 8, (E)-3-(4-((6-hydroxy-2-(2-(trifluoromethyl)-phenyl)benzo[b]thiophen-3-yl)oxy)phenyl)-acrylic acid], the IC50 worked out at 1 nM and the “% ERα remaining” value stood at 17%.
For the molecule `O=C(O)/C=C/c1ccc(Oc2c(-c3ccccc3Cl)sc3cc(O)ccc23)cc1` [Example 9, (E)-3-(4-((2-(2-chlorophenyl)-6-hydroxybenzo[b]thiophen-3-yl)oxy)phenyl)-acrylic acid], half-maximal inhibition (IC50) was put at 6 nM and the “% ERα remaining” value is 18%.
Regarding `Cc1cc(C(F)(F)F)ccc1-c1sc2cc(O)ccc2c1Oc1ccc(/C=C/C(=O)O)cc1` [Example 10, (E)-3-(4-((6-hydroxy-2-(2-methyl-4-(trifluoromethyl)phenyl)benzo[b]thiophen-3-yl)oxy)phenyl)acrylic acid], the midpoint of inhibition, the IC50, lay at 5 nM and the “% ERα remaining” value is 17%.
For the molecule `O=C(O)/C=C/c1ccc(Oc2c(-c3ccc(C(F)(F)F)cc3C(F)(F)F)sc3cc(O)ccc23)cc1` [Example 11, (E)-3-(4-((2-(2,4-bis(trifluoromethyl)phenyl)-6-hydroxy-benzo[b]thiophen-3-yl)oxy)phenyl)-acrylic acid], inhibition was half-maximal at 1 nM (IC50) and the “% ERα remaining” value came to 15%.
Turning to `Cc1cccc(-c2sc3cc(O)ccc3c2Oc2ccc(/C=C/C(=O)O)cc2)c1C` [Example 13, (E)-3-(4-((2-(2,3-dimethylphenyl)-6-hydroxybenzo[b]thiophen-3-yl)oxy)phenyl)-acrylic acid], half-maximal inhibition (IC50) was put at 2 nM and the “% ERα remaining” value was found to be 14%.
For `Cc1ccc(C)c(-c2sc3cc(O)ccc3c2Oc2ccc(/C=C/C(=O)O)cc2)c1` [Example 14, (E)-3-(4-((2-(2,5-dimethylphenyl)-6-hydroxybenzo[b]thiophen-3-yl)oxy)phenyl)-acrylic acid], the IC50 is 6 nM and the “% ERα remaining” value is on record as 15%.
For `Cc1noc(C)c1-c1sc2cc(O)ccc2c1Oc1ccc(/C=C/C(=O)O)cc1` [Example 15, (E)-3-(4-((2-(3,5-dimethylisoxazol-4-yl)-6-hydroxybenzo-[b]thiophen-3-yl)oxy)-phenyl)acrylic acid], the IC50 came out at 12 nM and the “% ERα remaining” value was determined as 20%.
